# Measurements as given in PMC9128166 (Cancer Science, 2022).
# Several values for one entry are separate records, joined by “and”; a condition that tells them apart may be missing. Identical values can stand only once.
# Columns and labels:
# [1] = system: plasma proteins associated with PI3Kδ inhibition; experiment: Plasma proteomic pharmacodynamic biomarkers; format: in vivo, Japanese patients
# [2] = system: phospho‐AKT; settings: read-out: calculated in vitro IC90 for phospho‐AKT inhibition; measure of PI3K pathway pharmacodynamic activity; ref not given; cited from earlier work
# [3] = Urine pharmacokinetics of parsaclisib, cycle 1 day 15; format: in vivo, Japanese patients
# [4] = Plasma pharmacokinetics of parsaclisib, cycle 1 day 15; format: in vivo, Japanese patients; settings: for Vd/F: Vz/F
# [5] = 10 mg QD, cycle 1 day 15, n 3, mean ± SD
# [6] = 20 mg QD, cycle 1 day 15, n 11, mean ± SD
smiles,measurement,setting,value
CCOc1c([C@H](C)n2nc(C)c3c(N)ncnc32)cc(Cl)c(F)c1[C@@H]1CNC(=O)C1 [parsaclisib],parsaclisib‐responsive proteins after transition to QW dosing,"[1]; 10 mg or 20 mg QW, weeks 12 and 24",reverted partially or completely to baseline expression levels
same,plasma proteins significantly changed following 4 weeks or 8 weeks of QD parsaclisib dosing,"[1]; FL and MZL (n = 11), approximately 1000 proteins analysed",23 plasma proteins
same,IC90,[2],0.04 µM
same,"Fe,0-8h (unchanged parsaclisib recovered in urine)","[3]; Total, cycle 1 day 15, n 14, mean ± SD (text: mean (range))",12.1 (5.4–20.4) %
same,CL renal,"[3]; human, urine, oral",6.67 mL/min
same,Accumulation ratio,[4]; [5],"1.4 ± 0.2 (1.4, 17.1)"
same,CLss/F,[4]; [5],"1.8 ± 0.6 (1.75, 30.9) L/h"
same,Cmin,[4]; [5],"227 ± 83.2 nM and 227 ± 83.2 (215, 36.6) nM"
same,Tmax,"[4]; 10 mg QD, cycle 1 day 15, n 3, median (range)",1.0 (0.5–2.0) h
same,Accumulation ratio,[4]; [6],"1.2 ± 0.1 (1.2, 11.3)"
same,CLss/F,[4]; [6],"2.3 ± 0.75 (2.2, 32.9) L/h"
same,Cmin,[4]; [6],"303 ± 155 nM and 303 ± 155 (271, 51.0) nM"
same,CLss/F,"[4]; Total (10 and 20 mg QD), cycle 1 day 15, n 14, mean ± SD","2.2 ± 0.7 L/h and 2.2 ± 0.7 (2.1, 32.8) L/h"
same,AUC,"[4]; human, plasma, oral, 10 mg",12.5 µM·h
same,Cmax,"[4]; human, plasma, oral, 10 mg",1440 ± 502 nM
same,Tmax,"[4]; human, plasma, oral, 10 mg, Tmax, 10 mg QD, cycle 1 day 15, n 3, median (range)",0.97 h
same,Vd/F,"[4]; human, plasma, oral, 10 mg, 10 mg QD, cycle 1 day 15, n 3, mean ± SD",31.3 ± 9.8 L
same,half-life,"[4]; human, plasma, oral, 10 mg, t½, 10 mg QD, cycle 1 day 15, n 3, mean ± SD",12.6 ± 4.6 h
same,AUC,"[4]; human, plasma, oral, 20 mg",20.5 µM·h
same,Cmax,"[4]; human, plasma, oral, 20 mg",2630 ± 530 nM
same,Tmax,"[4]; human, plasma, oral, 20 mg, Tmax, 20 mg QD, cycle 1 day 15, n 11, median (range)",0.55 h
same,Vd/F,"[4]; human, plasma, oral, 20 mg, 20 mg QD, cycle 1 day 15, n 11, mean ± SD",31.1 ± 10.2 L
same,half-life,"[4]; human, plasma, oral, 20 mg, t½, 20 mg QD, cycle 1 day 15, n 11, mean ± SD",9.8 ± 2.8 h
same,half-life,"[4]; human, plasma, oral, steady‐state geometric mean t½, overall, dose‐independent",9.9 h
